{
  "source": "patent US20120065179A1",
  "about": "“PRODRUG COMPRISING BETA-KETO CARBOXYLIC ACID, BETA-KETO CARBOXYLIC ACID SALT OR BETA-KETO CARBOXYLIC ACID ESTER FOR DRUG DELIVERY” (YKI, Ytemiska Institutet AB, priority 2009, published 2012)",
  "key": {"[1]": {"assay": "Storage stability of benzoylacetate salts and their corresponding acid (HPLC or gravimetric)", "assay_type": "physicochemical", "conditions": "for % relative to initial sample amount (by HPLC): stored in freezer (ca −18° C.)", "experimental": "(§1) A 0.2 M solution of ethyl benzoyl acetate (90%, Sigma Aldrich) in 0.5 M NaOH (aq) was prepared at room temperature and stirred for typically 5-24 hours, still at room temperature. After this time a major part of the ethyl benzoyl acetate had been transformed into dissolved sodium benzoyl acetate, as evidenced by monitoring the reaction by analysis of samples by reversed phase HPLC. Some acetophenone and remaining ethyl benzoyl acetate were typically present in the samples, but in minor amounts. The method employed a C8 column with an inner diameter of 150×4.6 mm and 5 micron particles. The mobile phase consisted of 400 ml deionized water+600 ml acetonitrile+0.196 g H3PO4 (85%)+2.760 g NaH2PO4*H2O. The flow rate was set to 1.0 mL/min and UV detection at 254 nm was employed for analysis of the compounds ethylbenzoylacetate (precursor), benzoylacetate (model prodrug) and acetophenone (model drug).\nThe storage stability of the sodium and calcium salts of benzoylacetate, and of benzoylacetic acid, in solid form, and in aqueous solutions, was investigated by storage of samples under various conditions (see Table 3a above) with regular HPLC- or gravimetric measurements of the samples from time to time. Samples denoted “neutralized” were prepared from a solution prepared as described in Example 1, which was neutralized with diluted HCl after performing the steps in Example 1.\nFrom the data it can be concluded that the best storage stability at room temperature is obtained by storage in the form of the calcium salt."}, "[2]": {"conditions": "pH 7"}, "[3]": {"assay": "Sustained release of acetophenone in vitro in model blood electrolyte solution at 37° C.", "assay_type": "physicochemical", "conditions": "for Concentration of sodium benzoyl acetate model prodrug in sample: model blood electrolyte solution pH 7.4", "experimental": "as §1\nEthyl benzoyl acetate was saponified according to the description in Example 1, and after 7 hours a solution containing about 0.2 M of the sodium salt of benzoyl acetate was obtained."}},
  "note": "Where two headings read alike, the source gives them in different places. Marks after values point to notes of the source that are not given here.",
  "data": [
    {"smiles": "O=C([O-])CC(=O)c1ccccc1.[Na+]", "note": "[sodium benzoylacetate]", "values": [
      {"measurement": "% relative to sample amount remaining after 2 days (by HPLC)", "setting": "[1]; Alkaline solution of Na-benzoyl acetate from Example 1, stored at room T, storage time 2 days", "result": 100.0, "unit": "%"},
      {"measurement": "% relative to sample amount remaining after 2 days (by HPLC)", "setting": "[1]; Alkaline solution of Na-benzoyl acetate from Example 1, stored at room T, storage time 8 days", "result": 66.2, "unit": "%"},
      {"measurement": "% relative to sample amount remaining after 2 days (by HPLC)", "setting": "[1]; Alkaline solution of Na-benzoyl acetate from Example 1, stored at room T, storage time 23 days", "result": 10.0, "unit": "%"},
      {"measurement": "% relative to sample amount remaining after 2 days (by HPLC)", "setting": "[1]; Neutralized solution of Na-benzoyl acetate from Example 1 (pH 7.1), at room T, storage time 2 days", "result": 100.0, "unit": "%"},
      {"measurement": "% relative to sample amount remaining after 2 days (by HPLC)", "setting": "[1]; Neutralized solution of Na-benzoyl acetate from Example 1 (pH 7.1), at room T, storage time 8 days", "result": 52.0, "unit": "%"},
      {"measurement": "% relative to sample amount remaining after 2 days (by HPLC)", "setting": "[1]; Neutralized solution of Na-benzoyl acetate from Example 1 (pH 7.1), at room T, storage time 23 days", "result": 8.9, "unit": "%"},
      {"measurement": "% relative to sample amount remaining after 2 days (by HPLC)", "setting": "[1]; Solid Na-salt, neutralized, 30-50% RH at room T, storage time 2 days", "result": 100.0, "unit": "%"},
      {"measurement": "% relative to sample amount remaining after 2 days (by HPLC)", "setting": "[1]; Solid Na-salt, neutralized, 30-50% RH at room T, storage time 8 days", "result": 84.8, "unit": "%"},
      {"measurement": "% relative to sample amount remaining after 2 days (by HPLC)", "setting": "[1]; Solid Na-salt, neutralized, 30-50% RH at room T, storage time 23 days", "result": 33.4, "unit": "%"},
      {"measurement": "% of absolute amount expected to be present in sample (by HPLC)", "setting": "[1]; Solid Na-salt, neutralized, 30-50% RH at room T, storage time 185 days", "result": "1.3*** %"},
      {"measurement": "% of absolute amount expected to be present in sample (by HPLC)", "setting": "[1]; Solid Na-salt, neutralized, stored at 6° C., storage time 0 days", "result": 103.1, "unit": "%"},
      {"measurement": "% of absolute amount expected to be present in sample (by HPLC)", "setting": "[1]; Solid Na-salt, neutralized, stored at 6° C., storage time 2 days", "result": 112.6, "unit": "%"},
      {"measurement": "% of absolute amount expected to be present in sample (by HPLC)", "setting": "[1]; Solid Na-salt, neutralized, stored at 6° C., storage time 5 days", "result": 109.2, "unit": "%"},
      {"measurement": "% of absolute amount expected to be present in sample (by HPLC)", "setting": "[1]; Solid Na-salt, neutralized, stored at 6° C., storage time 8 days", "result": 102.0, "unit": "%"},
      {"measurement": "% of absolute amount expected to be present in sample (by HPLC)", "setting": "[1]; Solid Na-salt, neutralized, stored at 6° C., storage time 12 days", "result": 100.7, "unit": "%"},
      {"measurement": "% of absolute amount expected to be present in sample (by HPLC)", "setting": "[1]; Solid Na-salt, neutralized, stored at 6° C., storage time 16 days", "result": 98.5, "unit": "%"},
      {"measurement": "% of absolute amount expected to be present in sample (by HPLC)", "setting": "[1]; Solid Na-salt, neutralized, stored at 6° C., storage time 21 days", "result": 81.9, "unit": "%"},
      {"measurement": "% of absolute amount expected to be present in sample (by HPLC)", "setting": "[1]; Solid Na-salt, neutralized, stored at 6° C., storage time 37 days", "result": 74.6, "unit": "%"},
      {"measurement": "% of absolute amount expected to be present in sample (by HPLC)", "setting": "[1]; Solid Na-salt, neutralized, stored at 6° C., storage time 49 days", "result": 72.3, "unit": "%"},
      {"measurement": "% of absolute amount expected to be present in sample (by HPLC)", "setting": "[1]; Solid Na-salt, neutralized, stored at 60° C., storage time 0.02 days", "result": 77.2, "unit": "%"},
      {"measurement": "% of absolute amount expected to be present in sample (by HPLC)", "setting": "[1]; Solid Na-salt, neutralized, stored at 60° C., storage time 0.8 days", "result": 10.7, "unit": "%"},
      {"measurement": "% of absolute amount expected to be present in sample (by HPLC)", "setting": "[1]; Solid Na-salt, neutralized, stored at 60° C., storage time 9.1 days", "result": 3.6, "unit": "%"},
      {"measurement": "% relative to initial sample amount (by HPLC)", "setting": "[1]; Solid Na-salt, neutralized, storage time 0 days", "result": 100, "unit": "%"},
      {"measurement": "% relative to initial sample amount (by HPLC)", "setting": "[1]; Solid Na-salt, neutralized, storage time 2 days", "result": 100, "unit": "%"},
      {"measurement": "% relative to initial sample amount (by HPLC)", "setting": "[1]; Solid Na-salt, neutralized, storage time 5 days", "result": 124, "unit": "%"},
      {"measurement": "% relative to initial sample amount (by HPLC)", "setting": "[1]; Solid Na-salt, neutralized, storage time 8 days", "result": 106, "unit": "%"},
      {"measurement": "% relative to initial sample amount (by HPLC)", "setting": "[1]; Solid Na-salt, neutralized, storage time 12 days", "result": 112, "unit": "%"},
      {"measurement": "% relative to initial sample amount (by HPLC)", "setting": "[1]; Solid Na-salt, neutralized, storage time 16 days", "result": 106, "unit": "%"},
      {"measurement": "% relative to initial sample amount (by HPLC)", "setting": "[1]; Solid Na-salt, neutralized, storage time 21 days", "result": 101, "unit": "%"},
      {"measurement": "% relative to initial sample amount (by HPLC)", "setting": "[1]; Solid Na-salt, neutralized, storage time 37 days", "result": 105, "unit": "%"},
      {"measurement": "% relative to initial sample amount (by HPLC)", "setting": "[1]; Solid Na-salt, neutralized, storage time 49 days", "result": 117, "unit": "%"},
      {"measurement": "% relative to sample amount remaining after 2 days (by HPLC)", "setting": "[1]; Solid Na-salt, non neutralized, 30-50% RH at room T, storage time 2 days", "result": 100.0, "unit": "%"},
      {"measurement": "% relative to sample amount remaining after 2 days (by HPLC)", "setting": "[1]; Solid Na-salt, non neutralized, 30-50% RH at room T, storage time 8 days", "result": 46.8, "unit": "%"},
      {"measurement": "% relative to sample amount remaining after 2 days (by HPLC)", "setting": "[1]; Solid Na-salt, non neutralized, 30-50% RH at room T, storage time 23 days", "result": 12.4, "unit": "%"},
      {"measurement": "Solubility", "setting": "physchem; pH 7, water, Solubility", "result": "> 200", "unit": "mM"},
      {"measurement": "Solubility", "setting": "physchem; water, Solubility (mM, as acetophenone equivalents)", "result": "≥ 200", "unit": "mM"},
      {"measurement": "Solubility", "setting": "[2]", "result": "≧200 mM"},
      {"measurement": "half-life at 2 mM", "setting": "[3]; model blood electrolyte solution pH 7.4, 37° C., read-out: estimated half-life (converted)", "result": "~20", "unit": "h"},
      {"measurement": "Concentration of sodium benzoyl acetate model prodrug in sample", "setting": "[3]; Time @ 37° C. 0.42", "result": 2660, "unit": "µM"},
      {"measurement": "Concentration of sodium benzoyl acetate model prodrug in sample", "setting": "[3]; Time @ 37° C. 2.25", "result": 2300, "unit": "µM"},
      {"measurement": "Concentration of sodium benzoyl acetate model prodrug in sample", "setting": "[3]; Time @ 37° C. 3.17", "result": 2440, "unit": "µM"},
      {"measurement": "Concentration of sodium benzoyl acetate model prodrug in sample", "setting": "[3]; Time @ 37° C. 4.17", "result": 2400, "unit": "µM"},
      {"measurement": "Concentration of sodium benzoyl acetate model prodrug in sample", "setting": "[3]; Time @ 37° C. 6.17", "result": 1710, "unit": "µM"},
      {"measurement": "Concentration of sodium benzoyl acetate model prodrug in sample", "setting": "[3]; Time @ 37° C. 8.25", "result": 1960, "unit": "µM"},
      {"measurement": "Concentration of sodium benzoyl acetate model prodrug in sample", "setting": "[3]; Time @ 37° C. 10.17", "result": 1690, "unit": "µM"},
      {"measurement": "Concentration of sodium benzoyl acetate model prodrug in sample", "setting": "[3]; Time @ 37° C. 12.17", "result": 1590, "unit": "µM"},
      {"measurement": "Concentration of sodium benzoyl acetate model prodrug in sample", "setting": "[3]; Time @ 37° C. 13.92", "result": 1520, "unit": "µM"},
      {"measurement": "Concentration of sodium benzoyl acetate model prodrug in sample", "setting": "[3]; Time @ 37° C. 17.92", "result": 1430, "unit": "µM"},
      {"measurement": "Concentration of sodium benzoyl acetate model prodrug in sample", "setting": "[3]; Time @ 37° C. 21.17", "result": 1310, "unit": "µM"},
      {"measurement": "Concentration of sodium benzoyl acetate model prodrug in sample", "setting": "[3]; Time @ 37° C. 24.92", "result": 1020, "unit": "µM"},
      {"measurement": "Concentration of sodium benzoyl acetate model prodrug in sample", "setting": "[3]; Time @ 37° C. 31.33", "result": 940, "unit": "µM"},
      {"measurement": "Concentration of sodium benzoyl acetate model prodrug in sample", "setting": "[3]; Time @ 37° C. 48.75", "result": 530, "unit": "µM"},
      {"measurement": "Concentration of sodium benzoyl acetate model prodrug in sample", "setting": "[3]; Time @ 37° C. 76.33", "result": 200, "unit": "µM"}
    ]}
  ]
}
